In patent US10544110B2, “Small molecule inhibitors of the nuclear translocation of androgen receptor for the treatment of castration-resistant prostate cancer” (University of Pittsburgh-Of the Commonwealth System of …, priority 2013, dated 2020):

Tested on: AR transcriptional activity (PSA promoter activity)
Assay: PSA luciferase assay in C4-2-PSA-rl cells (Dual-Glo luciferase system)
Settings: C4-2-PSA-rl cells; for IC50: 24 h treatment, 1 nM R1881, mean and SD of 2-6 independent experiments; for activity in PSA luciferase assay (in words): up to 25 μM
Protocol: C4-2-PSA-rl cells were seeded in 24-well plates such that they reached 75-80% cell monolayer density after 24 h. […] Each compound was tested in at least two independent experiments. Luciferase activity was assayed using the Dual-Luciferase® Reporter Assay System (Promega) using LMax II Microplate Reader (Molecular Devices). The luciferase assay results were acquired using SoftMax Pro5.45 software (Molecular Devices) and analyzed using GraphPad Prism. PSA6.1-luc activity was normalized to the Renilla luciferase activity. Relative luciferase activity was calculated as the quotient of androgen-induced PSA-firefly/Renilla luciferase activity. Since PSA promoter activity correlates to AR transcriptional activity, inhibition of AR will result in decreased PSA-luciferase activity.

Compound	IC50 (24 h) [µM]	activity in PSA luciferase assay (in words)	IC50 [µM]
Cc1ccccc1N1CCN(C(=O)[C@H]2C[C@@H]2c2ccccc2)CC1 (racemic) [Compound 16, ((1SR,2SR)-2-Phenylcyclopropyl)(4-(o-tolyl)piperazin-1-yl)methanone]	> 25	essentially inactive	–
Cc1noc(C)c1CSCC(=O)N1CCN(c2ccccc2)CC1 [Compound 5a, 2-(((3,5-Dimethylisoxazol-4-yl)methyl)thio)-1-(4-phenylpiperazin-1-yl)ethanone]	> 25	deleted activity	–
Cc1ccccc1N1CCN(C(=O)CSCc2c(C)noc2C)CC1 [Compound 5b, 2-(((3,5-Dimethylisoxazol-4-yl)methyl)thio)-1-(4-(o-tolyl)piperazin-1-yl)ethanone]	14.5	–	–
Cc1cccc(N2CCN(C(=O)CSCc3c(C)noc3C)CC2)c1 [Compound 5c, 2-(((3,5-Dimethylisoxazol-4-yl)methyl)thio)-1-(4-(m-tolyl)piperazin-1-yl)ethanone]	> 25	loss of activity	–
Cc1ccc(N2CCN(C(=O)CSCc3c(C)noc3C)CC2)cc1 [Compound 5d, 2-(((3,5-Dimethylisoxazol-4-yl)methyl)thio)-1-(4-(p-tolyl)piperazin-1-yl)ethanone]	> 25	loss of activity	–
Cc1noc(C)c1CSCC(=O)N1CCN(c2ccccc2C#N)CC1 [Compound 5e, 2-(4-(2-(((3,5-Dimethylisoxazol-4-yl)methyl)thio)acetyl)piperazin-1-yl)benzonitrile]	12 to 13	–	12 ± 1.6
Cc1noc(C)c1CSCC(=O)N1CCN(c2ccccc2F)CC1 [Compound 5f, 2-(((3,5-Dimethylisoxazol-4-yl)methyl)thio)-1-(4-(2-fluorophenyl)piperazin-1-yl)ethan-1-one]	12 to 13	–	12.6 ± 7.7
Cc1noc(C)c1CSCC(=O)N1CCN(c2cccc3ccccc23)CC1 [Compound 5g, 2-(((3,5-Dimethylisoxazol-4-yl)methyl)thio)-1-(4-(naphthalen-1-yl)piperazin-1-yl)ethanone]	11.1	–	–
COc1ccccc1N1CCN(C(=O)CSCc2c(C)noc2C)CC1 [Compound 5h, 2-(((3,5-Dimethylisoxazol-4-yl)methyl)thio)-1-(4-(2-methoxyphenyl)piperazin-1-yl)ethanone]	> 25	complete loss of activity	–
Cc1ccccc1N(C)CCN(C)C(=O)CSCc1c(C)noc1C [Compound 5i, 2-(((3,5-Dimethylisoxazol-4-yl)methyl)thio)-N-methyl-N-(2-(methyl(o-tolyl)amino)ethyl) acetamide]	18.4	–	–
Cc1ccccc1N1CCCN(C(=O)CSCc2c(C)noc2C)CC1 [Compound 5j, 2-(((3,5-Dimethylisoxazol-4-yl)methyl)thio)-1-(4-(o-tolyl)-1,4-diazepan-1-yl)ethan-1-one]	11.1	–	–
Cc1ccccc1N1C[C@@H](C)N(C(=O)CSCc2c(C)noc2C)[C@@H](C)C1 [Compound 5k, 1-(2,6-Dimethyl-4-(o-tolyl)piperazin-1-yl)-2-(((3,5-dimethylisoxazol-4-yl)methyl)thio)ethanone]	3.1	significantly more potent than 1	–
Cc1noc(C)c1CSCC(=O)N1C[C@@H](C)N(c2ccccc2)[C@@H](C)C1 [Compound 5l, 1-(3,5-Dimethyl-4-phenylpiperazin-1-yl)-2-(((3,5-dimethylisoxazol-4-yl)methyl)thio)ethan-1-one]	15 to 17	–	14.7 ± 4.4
Cc1cccc(N2[C@H](C)CN(C(=O)CSCc3c(C)noc3C)C[C@@H]2C)c1 [Compound 5m, 1-(3,5-Dimethyl-4-(m-tolyl)piperazin-1-yl)-2-(((3,5-dimethylisoxazol-4-yl)methyl)thio)ethan-1-one]	15 to 17	–	16.6 ± 4.8
